Measured values: patent publication US20180148418A1, “AMIDO-SUBSTITUTED CYCLOHEXANE DERIVATIVES” (Bayer Pharma Aktiengesellschaft, priority 2015, published 2018)

Columns and labels:
[1] = system: HEK293 cells cotransfected with the FOP control vector; assay: HEK293 FOP assay (control reporter with non-functional TCF elements); type: cell-based; conditions: Homo sapiens, 16 hours
In short: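 Compound series from 50 μM down to 15 nM, prediluted in DMSO then 50-fold into CAFTY buffer (pH 7.4, 2 mM Ca2+, 0.01% BSA), tested alongside TOP cells on a Geneticin-selected HEK293 FOP line whose TCF elements are replaced by a random sequence; recombinant human Wnt-3a applied at 2500-5 ng/ml.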

[2] = system: wildtype Wnt signaling cascade; assay: HEK293 TOP assay (Super TopFlash luciferase reporter, Wnt-3a stimulated); type: cell-based; conditions: HEK293 TOP reporter cells, Wnt3a at EC50, 16 hours
In short: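 Compound series (50 μM down to 15 nM, 3.16-fold) diluted from DMSO 50-fold into CAFTY buffer, pH 7.4, 2 mM Ca^2+, 0.01% BSA, applied to Wnt-3a-stimulated HEK293 TopFlash and FOP reporter lines in parallel. Cells seeded 10000/well 24 h before; luciferase signal measured.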

TNKS2 = target: T1, TNKS2 (Homo sapiens, UniProt Q9H2K2); assay: TNKS2 Assay B (auto-parsylation, [3H]-NAD+ SPA); type: biochemical; conditions: 6 nM TNKS2, auto-parsylation, over night at room temperature
T1 construct: purchased BPS Bioscience, San Diego, USA 80572 (TNKS2 Histone Ribosylation Assay Kit)
T1 sequence (Q9H2K2 1-1166): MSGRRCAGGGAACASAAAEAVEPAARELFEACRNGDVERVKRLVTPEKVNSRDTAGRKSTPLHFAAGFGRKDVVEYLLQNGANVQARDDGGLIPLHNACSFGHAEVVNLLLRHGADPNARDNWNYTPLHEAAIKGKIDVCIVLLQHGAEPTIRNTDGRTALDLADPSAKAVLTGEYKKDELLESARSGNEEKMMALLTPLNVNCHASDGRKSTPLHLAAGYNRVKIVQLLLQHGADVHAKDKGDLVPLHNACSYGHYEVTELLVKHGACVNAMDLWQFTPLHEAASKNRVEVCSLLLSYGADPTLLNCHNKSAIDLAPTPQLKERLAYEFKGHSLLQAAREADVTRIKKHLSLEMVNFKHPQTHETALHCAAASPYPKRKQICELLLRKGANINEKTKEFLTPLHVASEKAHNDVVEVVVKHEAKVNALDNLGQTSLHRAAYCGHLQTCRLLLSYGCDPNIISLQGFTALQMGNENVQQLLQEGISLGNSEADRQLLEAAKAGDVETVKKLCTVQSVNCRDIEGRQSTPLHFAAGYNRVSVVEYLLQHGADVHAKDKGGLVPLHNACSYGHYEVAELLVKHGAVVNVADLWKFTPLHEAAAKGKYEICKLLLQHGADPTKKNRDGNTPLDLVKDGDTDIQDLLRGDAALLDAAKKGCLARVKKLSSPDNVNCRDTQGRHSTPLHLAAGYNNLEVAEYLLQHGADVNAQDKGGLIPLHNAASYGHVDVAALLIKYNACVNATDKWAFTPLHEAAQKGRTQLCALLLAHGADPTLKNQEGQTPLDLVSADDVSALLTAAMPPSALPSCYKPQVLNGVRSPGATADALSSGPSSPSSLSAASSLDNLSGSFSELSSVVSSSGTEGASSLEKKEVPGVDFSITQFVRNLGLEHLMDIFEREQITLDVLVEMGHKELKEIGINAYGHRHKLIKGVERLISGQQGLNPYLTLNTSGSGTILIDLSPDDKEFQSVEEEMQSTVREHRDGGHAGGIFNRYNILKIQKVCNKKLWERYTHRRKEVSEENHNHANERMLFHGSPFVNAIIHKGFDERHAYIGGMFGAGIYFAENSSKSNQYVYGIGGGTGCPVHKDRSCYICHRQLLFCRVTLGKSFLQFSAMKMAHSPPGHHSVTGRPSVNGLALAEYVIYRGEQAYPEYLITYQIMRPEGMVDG

SMILES | IC50 ([2]; Homo sapiens, HEK293, 16 h) [nM] | IC50 (TNKS2) [nM] | IC50 [1] [nM] | IC50 [2] [nM]
O=C(N[C@H]1CC[C@H](C(=O)Nc2ccc(F)cc2Cl)CC1)c1cnn2ccc(N3CCCC3)nc12 [Example 108] | 180 | 60 | ≥ 50000 | 
Cc1cc(C)n2ncc(C(=O)NC34CCC(C(=O)Nc5ccc(F)cc5Cl)(CC3)CC4)c2n1 [Example 125, N-{4-[(2-chloro-4-fluorophenyl)carbamoyl]bicyclo[2.2.2]oct-1-yl}-5,7-dimethylpyrazolo[1,5-a]pyrimidine-3-carboxamide] | 69 | 130 | ≥ 50000 | 
CNC(=O)c1[nH]cnc1C(=O)NC12CCC(C(=O)Nc3ccc(F)cc3Cl)(CC1)CC2 [Example 115, N^4-{4-[(2-chloro-4-fluorophenyl)carbamoyl]bicyclo[2.2.2]oct-1-yl}-N^5-methyl-1H-imidazole-4,5-dicarboxamide] | 180 | 190 | ≥ 50000 | 
O=C(NCCC1CC1)c1nc[nH]c1C(=O)N[C@H]1CC[C@H](C(=O)Nc2cc(N3CCOCC3)ccc2Cl)CC1 [Example 93, N^5-(trans-4-{[2-chloro-5-(morpholin-4-yl)phenyl]carbamoyl}cyclohexyl)-N^4-(2-cyclopropylethyl)-1H-imidazole-4,5-dicarboxamide] | 1500 | 1600 | 12000 | 
O=C(NC12CCC(C(=O)Nc3cnccc3Cl)(CC1)CC2)c1cnc2cccnn12 [Example 124, N-{4-[(4-chloropyridin-3-yl)carbamoyl]bicyclo[2.2.2]oct-1-yl}imidazo[1,2-b]pyridazine-3-carboxamide] | 290 | 260 | 8900 | 
COCC(C)NC(=O)c1nc[nH]c1C(=O)N[C@H]1CC[C@H](C(=O)Nc2cnccc2Cl)CC1 (stereo partly drawn) [Example 99, N^5-{trans-4-[(4-chloropyridin-3-yl)carbamoyl]cyclohexyl}-N^4-(1-methoxypropan-2-yl)-1H-imidazole-4,5-dicarboxamide] | 51 | 110 | 20000 | 
CNC(=O)c1nc[nH]c1C(=O)N[C@H]1CC[C@H](C(=O)Nc2ccc(F)cc2)CC1 [Example 8, N^5-{trans-4-[(4-fluorophenyl)carbamoyl]cyclohexyl}-N^4-methyl-1H-imidazole-4,5-dicarboxamide] | 2100 | 2300 | ≥ 50000 | 
CC(O)CNc1ccc2ncc(C(=O)N[C@H]3CC[C@H](C(=O)Nc4ccc(F)cc4Cl)CC3)n2n1 (stereo partly drawn) [Example 114, N-{trans-4-[(2-chloro-4-fluorophenyl)carbamoyl]cyclohexyl}-6-[(2-hydroxypropyl)amino]imidazo[1,2-b]pyridazine-3-carboxamide] | 1600 | 480 | ≥ 50000 | 
O=C(NC12CCC(C(=O)Nc3c(F)cc(F)cc3Cl)(CC1)CC2)c1cnn2cccnc12 [Example 119, N-{4-[(2-chloro-4,6-difluorophenyl)carbamoyl]bicyclo[2.2.2]oct-1-yl}pyrazolo[1,5-a]pyrimidine-3-carboxamide] | 390 | 610 | ≥ 50000 | 
CNC(=O)c1nc[nH]c1C(=O)N[C@H]1CC[C@H](C(=O)Nc2ccc(C)cc2Cl)CC1 [Example 9, N^5-{trans-4-[(2-chloro-4-methylphenyl)carbamoyl]cyclohexyl}-N^4-methyl-1H-imidazole-4,5-dicarboxamide] | 180 | 110 | ≥ 50000 | 
Cc1c(C(C)N(C)C)cnc2c(C(=O)N[C@H]3CC[C@H](C(=O)Nc4ccc(F)cc4Cl)CC3)cnn12 (single isomer, unassigned) [Example 56, N-{trans-4-[(2-chloro-4-fluorophenyl)carbamoyl]cyclohexyl}-6-[1-(dimethylamino)ethyl]-7-methylpyrazolo[1,5-a]pyrimidine-3-carboxamide] |  | 370 | ≥ 50000 | 990

Continued, in another order:

IC50 ([2]; Homo sapiens, HEK293, 16 h) [nM] | IC50 (TNKS2) [nM] | SMILES | IC50 [1] [nM] | IC50 [2] [nM]
55 | 1.6 | O=C(NCCN1CCCCC1)c1nc[nH]c1C(=O)N[C@H]1CC[C@@]2(CCN(c3ccc(F)cc3Cl)C2=O)CC1 [Example 161, N^5-[(trans)-2-(2-chloro-4-fluorophenyl)-1-oxo-2-azaspiro[4.5]dec-8-yl]-N^4-[2-(piperidin-1-yl)ethyl]-1H-imidazole-4,5-dicarboxamide] | ≥ 50000 | 
720 | 100 | O=C(NCC1CCCO1)c1nc[nH]c1C(=O)N[C@H]1CC[C@H](C(=O)Nc2cc(C(F)(F)F)ccc2Cl)CC1 (stereo partly drawn) [Example 146, N^5-(trans-4-{[2-chloro-5-(trifluoromethyl)phenyl]carbamoyl}cyclohexyl)-N^4-(tetrahydrofuran-2-ylmethyl)-1H-imidazole-4,5-dicarboxamide] | 29000 | 
190 | 230 | CN(c1ccccc1)C(=O)[C@H]1CC[C@H](NC(=O)c2cnn3cccnc23)CC1 [Example 156, N-{trans-4-[methyl(phenyl)carbamoyl]cyclohexyl}pyrazolo[1,5-a]pyrimidine-3-carboxamide] | ≥ 50000 | 
22 | 18 | O=C(N[C@H]1CC[C@H](C(=O)Nc2cc(F)c(F)cc2Cl)CC1)c1cnn2cccnc12 [Example 130, N-{trans-4-[(2-chloro-4,5-difluorophenyl)carbamoyl]cyclohexyl}pyrazolo[1,5-a]pyrimidine-3-carboxamide] | ≥ 50000 | 
51 | 29 | O=C(N[C@H]1CC[C@H](C(=O)Nc2cc(F)c(F)cc2Cl)CC1)c1cnc2cccnn12 [Example 132, N-{trans-4-[(2-chloro-4,5-difluorophenyl)carbamoyl]cyclohexyl}imidazo[1,2-b]pyridazine-3-carboxamide] | ≥ 50000 | 
410 | 34 | O=C(NCC1CCCO1)c1nc[nH]c1C(=O)N[C@H]1CC[C@H](C(=O)Nc2cc(F)ccc2Cl)CC1 (stereo partly drawn) [Example 129, N^5-{trans-4-[(2-chloro-5-fluorophenyl)carbamoyl]cyclohexyl}-N^4-(tetrahydrofuran-2-ylmethyl)-1H-imidazole-4,5-dicarboxamide] | 39000 | 
1.1 | 4.2 | Cc1cc(C)n2ncc(C(=O)N[C@H]3CC[C@@]4(CCN(c5ccc(F)cc5Cl)C4=O)CC3)c2n1 [Example 139, N-[(trans)-2-(2-chloro-4-fluorophenyl)-1-oxo-2-azaspiro[4.5]dec-8-yl]-5,7-dimethylpyrazolo[1,5-a]pyrimidine-3-carboxamide] | ≥ 50000 | 
13 | 3.4 | CC1CCN(CCNC(=O)c2nc[nH]c2C(=O)N[C@H]2CC[C@@]3(CCN(c4ccc(F)cc4Cl)C3=O)CC2)CC1 [Example 160, N^5-[(trans)-2-(2-chloro-4-fluorophenyl)-1-oxo-2-azaspiro[4.5]dec-8-yl]-N^4-[2-(4-methylpiperidin-1-yl)ethyl]-1H-imidazole-4,5-dicarboxamide] | ≥ 50000 | 
